Source: BindingDB's records for doi:10.1021/jm9807003 (National Institute of Diabetes, 1999)

Assay: Ability to inhibit GTP-gamma-S binding to Opioid receptor delta 1 of guinea pig caudate

For `COc1ccc2c(c1O)[C@]13CCN(CC4CC4)[C@H](C2)[C@@H]1Cc1c([nH]c2ccccc12)C3` [17-cyclopropylmethyl-6,7-didehydro-4-hydroxy-3-methoxy-6,7:2',3'-indolmorphinan], the Ki was 22 nM.
